According to the kinase profiling compilation of Christmann-Franck et al. (2016):

What was measured:
Assay in all cases: KINOMEscan competition binding
Details in all cases: compound 10.0 µM
WEE1 (human) = WEE1 (human) (UniProt P30291)
FLT1 (human) = FLT1 (human) (UniProt P17948)
CDK14 (human) = CDK14 (human) (UniProt O94921)
MARK4 (human) = MARK4 (human) (UniProt Q96L34)
BLK (human) = BLK (human) (UniProt P51451)
RAF1 (human) = RAF1 (human) (UniProt P04049)
CDKL3 (human) = CDKL3 (human) (UniProt Q8IVW4)
GRK1 (human) = GRK1 (human) (UniProt Q15835)
EPHA7 (human) = EPHA7 (human) (UniProt Q15375)
DAPK2 (human) = DAPK2 (human) (UniProt Q9UIK4)
CSNK1A1 (human) = CSNK1A1 (human) (UniProt P48729)
MAPKAPK5 (human) = MAPKAPK5 (human) (UniProt Q8IW41)
ALK (human) = ALK (human) (UniProt Q9UM73)
[1] = tested on: KIT (human), P10721 [V559D/T670I]
ITK (human) = ITK (human) (UniProt Q08881)
DCLK3 (human) = DCLK3 (human) (UniProt Q9C098)
EPHA8 (human) = EPHA8 (human) (UniProt P29322)
PRKG1 (human) = PRKG1 (human) (UniProt Q13976)
Chain of PRKG1 (human) (Q13976 whole entry, looked up): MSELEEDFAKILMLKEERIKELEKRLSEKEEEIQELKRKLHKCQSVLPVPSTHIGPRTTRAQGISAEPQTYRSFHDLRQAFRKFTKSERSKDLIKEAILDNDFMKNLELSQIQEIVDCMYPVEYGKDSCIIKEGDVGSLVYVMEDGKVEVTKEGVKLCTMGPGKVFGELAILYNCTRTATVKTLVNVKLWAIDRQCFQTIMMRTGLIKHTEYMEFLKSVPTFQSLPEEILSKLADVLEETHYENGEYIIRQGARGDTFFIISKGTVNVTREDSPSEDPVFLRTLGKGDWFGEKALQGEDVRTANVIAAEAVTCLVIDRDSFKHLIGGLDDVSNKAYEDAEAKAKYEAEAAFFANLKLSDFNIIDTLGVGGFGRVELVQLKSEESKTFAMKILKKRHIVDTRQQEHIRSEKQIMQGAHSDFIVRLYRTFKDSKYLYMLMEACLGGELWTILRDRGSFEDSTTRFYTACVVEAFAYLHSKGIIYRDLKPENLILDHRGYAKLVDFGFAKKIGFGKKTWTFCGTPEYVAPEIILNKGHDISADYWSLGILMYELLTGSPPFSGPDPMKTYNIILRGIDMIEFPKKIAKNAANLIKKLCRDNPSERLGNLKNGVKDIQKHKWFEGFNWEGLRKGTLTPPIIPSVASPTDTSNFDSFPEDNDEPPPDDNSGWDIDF

FGFR3 (human) = FGFR3 (human) (UniProt P22607)
EIF2AK2 (human) = EIF2AK2 (human) (UniProt P19525)
MAP4K2 (human) = MAP4K2 (human) (UniProt Q12851)
[2] = tested on: RET (human), P07949 [V804L]
EPHB6 (human) = EPHB6 (human) (UniProt O15197)
[3] = tested on: FLT3 (human), P36888 [N841I]
MAP3K1 (human) = MAP3K1 (human) (UniProt Q13233)
CDK11B (human) = CDK11B (human) (UniProt P21127)
ROS1 (human) = ROS1 (human) (UniProt P08922)
DYRK1A (human) = DYRK1A (human) (UniProt Q13627)
CDK8 (human) = CDK8 (human) (UniProt P49336)
RPS6KA3 KD1 (human) = RPS6KA3 KD1 (human) (UniProt P51812)
Chain of RPS6KA3 KD1 (human) (P51812 whole entry, looked up): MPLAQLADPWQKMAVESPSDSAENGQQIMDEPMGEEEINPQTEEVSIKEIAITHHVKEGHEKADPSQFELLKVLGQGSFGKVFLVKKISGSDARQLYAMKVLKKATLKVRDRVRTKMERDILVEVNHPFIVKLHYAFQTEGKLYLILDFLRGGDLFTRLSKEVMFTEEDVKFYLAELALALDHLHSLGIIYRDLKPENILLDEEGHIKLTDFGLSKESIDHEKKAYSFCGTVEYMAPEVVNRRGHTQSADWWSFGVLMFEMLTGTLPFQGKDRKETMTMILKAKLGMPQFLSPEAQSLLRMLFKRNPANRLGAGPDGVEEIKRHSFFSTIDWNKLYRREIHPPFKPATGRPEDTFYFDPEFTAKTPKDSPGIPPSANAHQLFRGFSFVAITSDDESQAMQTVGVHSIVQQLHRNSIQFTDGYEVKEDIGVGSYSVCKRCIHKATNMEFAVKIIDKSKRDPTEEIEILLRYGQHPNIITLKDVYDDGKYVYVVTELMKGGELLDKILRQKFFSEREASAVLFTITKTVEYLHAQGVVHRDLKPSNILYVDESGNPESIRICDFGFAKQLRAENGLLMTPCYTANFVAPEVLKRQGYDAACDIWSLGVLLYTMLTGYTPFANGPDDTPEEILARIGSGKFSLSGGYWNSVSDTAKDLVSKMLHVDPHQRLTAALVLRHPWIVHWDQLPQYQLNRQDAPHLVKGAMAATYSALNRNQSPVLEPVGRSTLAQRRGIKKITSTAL

PHKG1 (human) = PHKG1 (human) (UniProt Q16816)
Chain of PHKG1 (human) (Q16816 whole entry, looked up): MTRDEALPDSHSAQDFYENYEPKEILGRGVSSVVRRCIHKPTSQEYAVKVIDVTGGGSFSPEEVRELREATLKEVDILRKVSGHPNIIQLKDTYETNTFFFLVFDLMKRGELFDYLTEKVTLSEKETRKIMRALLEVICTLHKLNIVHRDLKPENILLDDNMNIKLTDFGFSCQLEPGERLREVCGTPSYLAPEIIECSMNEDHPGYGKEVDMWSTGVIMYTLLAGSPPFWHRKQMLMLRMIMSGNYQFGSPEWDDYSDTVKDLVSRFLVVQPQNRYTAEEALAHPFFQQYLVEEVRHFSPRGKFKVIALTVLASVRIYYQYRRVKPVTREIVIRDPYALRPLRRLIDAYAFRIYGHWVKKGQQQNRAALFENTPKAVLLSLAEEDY

MLTK (human) = MLTK (human) (UniProt Q9NYL2)
Chain of MLTK (human) (Q9NYL2 whole entry, looked up): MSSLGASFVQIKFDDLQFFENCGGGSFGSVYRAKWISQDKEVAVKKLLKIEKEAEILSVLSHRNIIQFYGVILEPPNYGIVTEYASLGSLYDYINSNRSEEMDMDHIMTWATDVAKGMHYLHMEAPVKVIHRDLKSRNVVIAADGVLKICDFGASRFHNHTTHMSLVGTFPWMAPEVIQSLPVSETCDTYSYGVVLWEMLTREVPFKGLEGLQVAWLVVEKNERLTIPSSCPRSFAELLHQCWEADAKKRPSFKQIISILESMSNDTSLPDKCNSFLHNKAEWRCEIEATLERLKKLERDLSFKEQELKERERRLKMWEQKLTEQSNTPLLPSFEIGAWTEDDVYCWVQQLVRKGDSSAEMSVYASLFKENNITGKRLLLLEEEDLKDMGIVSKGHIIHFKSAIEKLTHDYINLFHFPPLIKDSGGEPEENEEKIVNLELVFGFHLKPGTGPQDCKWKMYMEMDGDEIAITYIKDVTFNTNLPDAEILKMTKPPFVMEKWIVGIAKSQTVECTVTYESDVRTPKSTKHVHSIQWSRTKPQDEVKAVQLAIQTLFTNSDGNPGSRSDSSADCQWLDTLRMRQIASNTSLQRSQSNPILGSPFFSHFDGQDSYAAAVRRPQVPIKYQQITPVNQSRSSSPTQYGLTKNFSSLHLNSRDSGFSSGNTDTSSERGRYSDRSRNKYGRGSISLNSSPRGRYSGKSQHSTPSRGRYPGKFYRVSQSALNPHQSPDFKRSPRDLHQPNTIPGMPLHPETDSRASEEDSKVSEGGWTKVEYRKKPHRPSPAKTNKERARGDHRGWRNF

NEK11 (human) = NEK11 (human) (UniProt Q8NG66)
PDGFRB (human) = PDGFRB (human) (UniProt P09619)
PLK3 (human) = PLK3 (human) (UniProt Q9H4B4)
TAOK2 (human) = TAOK2 (human) (UniProt Q9UL54)
Chain of TAOK2 (human) (Q9UL54 whole entry, looked up): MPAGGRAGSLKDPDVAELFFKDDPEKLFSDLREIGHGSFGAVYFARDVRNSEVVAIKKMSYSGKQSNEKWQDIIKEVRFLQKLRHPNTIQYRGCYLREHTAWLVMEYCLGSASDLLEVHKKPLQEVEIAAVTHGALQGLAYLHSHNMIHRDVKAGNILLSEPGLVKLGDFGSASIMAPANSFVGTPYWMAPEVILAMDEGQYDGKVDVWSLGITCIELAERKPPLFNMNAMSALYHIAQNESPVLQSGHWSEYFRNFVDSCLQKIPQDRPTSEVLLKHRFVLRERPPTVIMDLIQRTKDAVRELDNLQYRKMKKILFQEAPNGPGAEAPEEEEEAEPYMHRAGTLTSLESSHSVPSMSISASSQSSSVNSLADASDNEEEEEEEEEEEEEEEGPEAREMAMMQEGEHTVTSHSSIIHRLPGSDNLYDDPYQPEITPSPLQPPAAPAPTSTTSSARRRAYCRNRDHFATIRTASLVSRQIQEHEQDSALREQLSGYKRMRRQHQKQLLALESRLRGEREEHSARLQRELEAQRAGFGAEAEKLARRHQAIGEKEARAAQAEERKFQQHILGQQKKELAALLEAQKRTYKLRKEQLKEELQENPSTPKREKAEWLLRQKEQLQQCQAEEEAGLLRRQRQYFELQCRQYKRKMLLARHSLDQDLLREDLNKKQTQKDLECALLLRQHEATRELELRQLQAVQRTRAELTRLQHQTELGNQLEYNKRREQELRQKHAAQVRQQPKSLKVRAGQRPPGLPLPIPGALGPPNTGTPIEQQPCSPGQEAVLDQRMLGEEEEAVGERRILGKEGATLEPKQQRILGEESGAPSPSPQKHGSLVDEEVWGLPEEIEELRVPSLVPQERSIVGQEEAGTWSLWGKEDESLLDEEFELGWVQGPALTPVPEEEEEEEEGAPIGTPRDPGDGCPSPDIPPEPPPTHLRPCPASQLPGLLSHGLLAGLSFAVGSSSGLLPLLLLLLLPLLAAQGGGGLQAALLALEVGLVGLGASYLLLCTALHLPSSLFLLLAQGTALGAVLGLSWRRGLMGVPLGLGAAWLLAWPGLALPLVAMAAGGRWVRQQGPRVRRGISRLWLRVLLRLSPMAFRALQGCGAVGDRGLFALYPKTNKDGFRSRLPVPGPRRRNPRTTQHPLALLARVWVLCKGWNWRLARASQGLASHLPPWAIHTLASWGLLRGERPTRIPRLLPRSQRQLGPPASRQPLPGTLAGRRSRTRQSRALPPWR

PAK4 (human) = PAK4 (human) (UniProt O96013)
Chain of PAK4 (human) (O96013 whole entry, looked up): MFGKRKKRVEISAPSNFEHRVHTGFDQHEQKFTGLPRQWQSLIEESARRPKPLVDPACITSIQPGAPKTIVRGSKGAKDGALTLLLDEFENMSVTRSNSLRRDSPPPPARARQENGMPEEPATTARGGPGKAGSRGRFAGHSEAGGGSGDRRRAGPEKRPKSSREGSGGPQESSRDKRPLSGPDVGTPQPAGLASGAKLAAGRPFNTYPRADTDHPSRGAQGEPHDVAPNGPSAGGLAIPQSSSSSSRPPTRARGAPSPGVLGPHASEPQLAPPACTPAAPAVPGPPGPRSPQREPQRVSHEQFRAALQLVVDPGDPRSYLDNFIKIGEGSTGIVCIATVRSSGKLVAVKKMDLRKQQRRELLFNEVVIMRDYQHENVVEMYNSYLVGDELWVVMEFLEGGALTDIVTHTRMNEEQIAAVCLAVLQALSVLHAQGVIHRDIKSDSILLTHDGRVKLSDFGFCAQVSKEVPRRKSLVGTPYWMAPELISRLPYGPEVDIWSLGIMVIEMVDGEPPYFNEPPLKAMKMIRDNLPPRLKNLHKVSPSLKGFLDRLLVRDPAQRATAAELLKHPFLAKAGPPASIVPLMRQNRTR

AURKA (human) = AURKA (human) (UniProt O14965)
[4] = target: TYK2 JH1 catalytic (human) (UniProt P29597)
MAPK9 (human) = MAPK9 (human) (UniProt P45984)
SRC (human) = SRC (human) (UniProt P12931)

Chain of RAF1 (human) (P04049 whole entry, looked up): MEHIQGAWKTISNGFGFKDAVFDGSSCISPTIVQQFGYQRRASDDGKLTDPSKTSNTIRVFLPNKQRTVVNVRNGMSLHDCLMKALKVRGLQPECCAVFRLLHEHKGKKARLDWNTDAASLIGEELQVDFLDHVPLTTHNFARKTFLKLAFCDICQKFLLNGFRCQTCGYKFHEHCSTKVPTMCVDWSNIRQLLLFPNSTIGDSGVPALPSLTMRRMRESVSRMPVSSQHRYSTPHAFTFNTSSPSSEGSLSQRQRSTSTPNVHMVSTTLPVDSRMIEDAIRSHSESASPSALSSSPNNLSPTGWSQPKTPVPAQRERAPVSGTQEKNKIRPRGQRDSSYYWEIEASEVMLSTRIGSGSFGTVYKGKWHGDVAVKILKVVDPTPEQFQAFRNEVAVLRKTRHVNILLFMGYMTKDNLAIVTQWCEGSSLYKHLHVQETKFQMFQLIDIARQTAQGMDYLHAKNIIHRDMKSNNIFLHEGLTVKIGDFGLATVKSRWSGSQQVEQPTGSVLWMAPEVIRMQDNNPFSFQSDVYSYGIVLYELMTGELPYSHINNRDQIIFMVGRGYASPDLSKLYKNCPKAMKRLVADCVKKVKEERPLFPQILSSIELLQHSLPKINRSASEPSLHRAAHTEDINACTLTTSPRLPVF

CC(C)n1nc(-c2cc3cc(O)ccc3[nH]2)c2c(N)ncnc21
kinase still bound, per cent of control (WEE1 (human)): 72% | kinase still bound, per cent of control (FLT1 (human)): 25% | per cent of control (CDK14 (human)): 100% | kinase still bound, per cent of control (MARK4 (human)): 82% | kinase still bound, per cent of control (BLK (human)): 1.2% | kinase still bound, per cent of control (RAF1 (human)): 41% | per cent of control (CDKL3 (human)): 100% | kinase still bound, per cent of control (GRK1 (human)): 16% | kinase still bound, per cent of control (EPHA7 (human)): 61% | kinase still bound, per cent of control (DAPK2 (human)): 3.8% | kinase still bound, per cent of control (CSNK1A1 (human)): 3.6% | kinase still bound, per cent of control (MAPKAPK5 (human)): 86% | kinase still bound, per cent of control (ALK (human)): 41% | kinase still bound, per cent of control [1]: 30% | kinase still bound, per cent of control (ITK (human)): 100% | kinase still bound, per cent of control (DCLK3 (human)): 10% | kinase still bound, per cent of control (EPHA8 (human)): 1.2% | kinase still bound, per cent of control (PRKG1 (human)): 100% | kinase still bound, per cent of control (FGFR3 (human)): 9.2% | kinase still bound, per cent of control (EIF2AK2 (human)): 48% | kinase still bound, per cent of control (MAP4K2 (human)): 0% | kinase still bound, per cent of control [2]: 12% | kinase still bound, per cent of control (EPHB6 (human)): 5.3% | kinase still bound, per cent of control [3]: 5% | kinase still bound, per cent of control (MAP3K1 (human)): 45% | per cent of control (CDK11B (human)): 100% | kinase still bound, per cent of control (ROS1 (human)): 100% | kinase still bound, per cent of control (DYRK1A (human)): 27% | per cent of control (CDK8 (human)): 43% | kinase still bound, per cent of control (RPS6KA3 KD1 (human)): 0.35% | kinase still bound, per cent of control (PHKG1 (human)): 50% | kinase still bound, per cent of control (MLTK (human)): 29% | kinase still bound, per cent of control (NEK11 (human)): 74% | kinase still bound, per cent of control (PDGFRB (human)): 0% | kinase still bound, per cent of control (PLK3 (human)): 33% | kinase still bound, per cent of control (TAOK2 (human)): 1.2% | kinase still bound, per cent of control (PAK4 (human)): 13% | kinase still bound, per cent of control (AURKA (human)): 100% | kinase still bound, per cent of control [4]: 8.2%

COC(=O)Nc1ccc(-c2nc(N3CCOCC3)c3cnn(C4CCN(C(=O)OC)CC4)c3n2)cc1
kinase still bound, per cent of control (WEE1 (human)): 100% | kinase still bound, per cent of control (FLT1 (human)): 100% | per cent of control (CDK14 (human)): 100% | kinase still bound, per cent of control (MARK4 (human)): 96% | kinase still bound, per cent of control (BLK (human)): 100% | kinase still bound, per cent of control (RAF1 (human)): 91% | per cent of control (CDKL3 (human)): 64% | kinase still bound, per cent of control (GRK1 (human)): 100% | kinase still bound, per cent of control (EPHA7 (human)): 94% | kinase still bound, per cent of control (DAPK2 (human)): 96% | kinase still bound, per cent of control (CSNK1A1 (human)): 100% | kinase still bound, per cent of control (MAPK9 (human)): 100% | kinase still bound, per cent of control (MAPKAPK5 (human)): 100% | kinase still bound, per cent of control (ALK (human)): 100% | kinase still bound, per cent of control [1]: 100% | kinase still bound, per cent of control (ITK (human)): 91% | kinase still bound, per cent of control (DCLK3 (human)): 92% | kinase still bound, per cent of control (EPHA8 (human)): 97% | kinase still bound, per cent of control (PRKG1 (human)): 100% | kinase still bound, per cent of control (FGFR3 (human)): 99% | kinase still bound, per cent of control (EIF2AK2 (human)): 100% | kinase still bound, per cent of control (MAP4K2 (human)): 100% | kinase still bound, per cent of control [2]: 84% | kinase still bound, per cent of control (SRC (human)): 95% | kinase still bound, per cent of control (EPHB6 (human)): 97% | kinase still bound, per cent of control [3]: 78% | kinase still bound, per cent of control (MAP3K1 (human)): 94% | per cent of control (CDK11B (human)): 100% | kinase still bound, per cent of control (ROS1 (human)): 76% | kinase still bound, per cent of control (DYRK1A (human)): 88% | per cent of control (CDK8 (human)): 100% | kinase still bound, per cent of control (RPS6KA3 KD1 (human)): 76% | kinase still bound, per cent of control (PHKG1 (human)): 81% | kinase still bound, per cent of control (MLTK (human)): 97% | kinase still bound, per cent of control (NEK11 (human)): 85% | kinase still bound, per cent of control (PDGFRB (human)): 100% | kinase still bound, per cent of control (PLK3 (human)): 93% | kinase still bound, per cent of control (TAOK2 (human)): 73% | kinase still bound, per cent of control (PAK4 (human)): 100% | kinase still bound, per cent of control (AURKA (human)): 85% | kinase still bound, per cent of control [4]: 100%

CCC(=O)N1CCN(c2ccc(-n3c(=O)ccc4cnc5ccc(-c6cnc7ccccc7c6)cc5c43)cc2C(F)(F)F)CC1
kinase still bound, per cent of control (WEE1 (human)): 42% | kinase still bound, per cent of control (FLT1 (human)): 79% | per cent of control (CDK14 (human)): 99% | kinase still bound, per cent of control (MARK4 (human)): 100% | kinase still bound, per cent of control (BLK (human)): 75% | kinase still bound, per cent of control (RAF1 (human)): 48% | per cent of control (CDKL3 (human)): 92% | kinase still bound, per cent of control (GRK1 (human)): 99% | kinase still bound, per cent of control (EPHA7 (human)): 98% | kinase still bound, per cent of control (MAPK9 (human)): 40% | kinase still bound, per cent of control (MAPKAPK5 (human)): 100% | kinase still bound, per cent of control (ALK (human)): 80% | kinase still bound, per cent of control (ITK (human)): 100% | kinase still bound, per cent of control (DCLK3 (human)): 97% | kinase still bound, per cent of control (EPHA8 (human)): 71% | kinase still bound, per cent of control (PRKG1 (human)): 86% | kinase still bound, per cent of control (FGFR3 (human)): 42% | kinase still bound, per cent of control (EIF2AK2 (human)): 88% | kinase still bound, per cent of control (MAP4K2 (human)): 35% | kinase still bound, per cent of control [2]: 66% | kinase still bound, per cent of control (SRC (human)): 95% | kinase still bound, per cent of control (EPHB6 (human)): 80% | kinase still bound, per cent of control [3]: 8.8% | kinase still bound, per cent of control (MAP3K1 (human)): 92% | per cent of control (CDK11B (human)): 97% | kinase still bound, per cent of control (ROS1 (human)): 71% | kinase still bound, per cent of control (DYRK1A (human)): 71% | per cent of control (CDK8 (human)): 4.6% | kinase still bound, per cent of control (RPS6KA3 KD1 (human)): 38% | kinase still bound, per cent of control (PHKG1 (human)): 100% | kinase still bound, per cent of control (MLTK (human)): 22% | kinase still bound, per cent of control (NEK11 (human)): 65% | kinase still bound, per cent of control (PDGFRB (human)): 24% | kinase still bound, per cent of control (PLK3 (human)): 87% | kinase still bound, per cent of control (TAOK2 (human)): 84% | kinase still bound, per cent of control (PAK4 (human)): 100% | kinase still bound, per cent of control (AURKA (human)): 100% | kinase still bound, per cent of control [4]: 70%
